Measured values published in US10479795B2 (Incyte Corporation, priority 2016, dated 2019).
Where a name gives a salt, the structure may show the parent alone. Read-outs that look alike come from different tables or passages of the source.

What was measured:
[1] = target: PI3Kδ (p110δ/p85α) Recombinant Human Protein (Homo sapiens (Human), UniProt O00329); experiment: PI3Kδ Scintillation Proximity Assay; assay type: biochemical
Summary of the method: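 Assay conditions: 2 μM ATP (radiolabelled), 20 μM PIP2, 3.4 nM PI3Kδ, 20 mM MOPS pH 6.7 with 10 mM MgCl2, 5 mM DTT, 0.03% CHAPS, 2 h at room temperature. Signal from bead-captured 33P product; IC50 versus solvent control.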

[2] = target: PI3Kγ (p110γ) Recombinant Human Protein (Homo sapiens (Human), UniProt P48736); experiment: PI3K-γ Scintillation Proximity Assay; assay type: biochemical; conditions: read-out: PI3Kγ IC50
Summary of the method: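 Radiometric SPA readout: […] bound to WGA beads after overnight shaking, IC50 derived from % activity of DMSO control. Reaction used human p110γ, 2 μM ATP, 20 μM PIP2, pH 6.7 MOPS buffer with MgCl2, DTT, CHAPS, 2% DMSO, room temperature.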

[3] = tested on: Phosphorylated Ribosomal Protein S6 (RPS6); experiment: THP-1 RPS6 ELISA Assay; assay type: cell-based, Human; conditions: THP-1 cells, read-out: PI3Kγ_THP1_RPS6_ELISA IC50
Summary of the method: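 IC50 values come from a curve of percent inhibition against log compound concentration, using phospho-RPS6 ELISA (450 nm) on THP-1 lysates. Cells were serum-starved overnight, exposed to compound for 2 h at 37 °C, then challenged 15 min with 10 nM MCP-1.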

Sequence of PI3Kδ (p110δ/p85α) Recombinant Human Protein (O00329 whole entry): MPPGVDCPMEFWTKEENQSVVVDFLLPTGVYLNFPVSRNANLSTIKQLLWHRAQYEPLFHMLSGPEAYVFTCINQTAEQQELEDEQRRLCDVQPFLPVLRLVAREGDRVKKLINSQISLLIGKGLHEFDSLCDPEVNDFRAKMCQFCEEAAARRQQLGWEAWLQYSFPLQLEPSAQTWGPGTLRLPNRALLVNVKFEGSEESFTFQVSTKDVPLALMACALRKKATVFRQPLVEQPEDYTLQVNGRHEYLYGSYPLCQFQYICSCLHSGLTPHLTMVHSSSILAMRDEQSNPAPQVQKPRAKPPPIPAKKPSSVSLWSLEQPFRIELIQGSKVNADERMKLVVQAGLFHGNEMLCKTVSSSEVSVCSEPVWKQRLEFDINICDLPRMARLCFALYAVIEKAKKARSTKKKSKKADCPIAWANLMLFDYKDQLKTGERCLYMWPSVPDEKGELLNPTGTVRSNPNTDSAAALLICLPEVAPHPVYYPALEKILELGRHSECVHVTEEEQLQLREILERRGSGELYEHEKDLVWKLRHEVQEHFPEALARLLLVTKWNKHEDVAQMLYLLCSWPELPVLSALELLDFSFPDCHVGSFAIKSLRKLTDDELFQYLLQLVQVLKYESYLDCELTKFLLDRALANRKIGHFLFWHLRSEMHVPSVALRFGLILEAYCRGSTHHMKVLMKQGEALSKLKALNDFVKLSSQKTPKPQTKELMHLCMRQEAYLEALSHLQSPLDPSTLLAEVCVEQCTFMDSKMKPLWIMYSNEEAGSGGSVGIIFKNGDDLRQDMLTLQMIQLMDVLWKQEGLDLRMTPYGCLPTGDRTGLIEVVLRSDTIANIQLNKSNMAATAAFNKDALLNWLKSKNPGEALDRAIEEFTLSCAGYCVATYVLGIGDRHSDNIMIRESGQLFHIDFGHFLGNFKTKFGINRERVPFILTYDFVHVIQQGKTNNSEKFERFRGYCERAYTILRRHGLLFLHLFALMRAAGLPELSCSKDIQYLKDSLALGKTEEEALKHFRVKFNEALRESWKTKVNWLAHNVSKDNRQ
Sequence of PI3Kδ (p110δ/p85α) Recombinant Human Protein (P27986 whole entry partner): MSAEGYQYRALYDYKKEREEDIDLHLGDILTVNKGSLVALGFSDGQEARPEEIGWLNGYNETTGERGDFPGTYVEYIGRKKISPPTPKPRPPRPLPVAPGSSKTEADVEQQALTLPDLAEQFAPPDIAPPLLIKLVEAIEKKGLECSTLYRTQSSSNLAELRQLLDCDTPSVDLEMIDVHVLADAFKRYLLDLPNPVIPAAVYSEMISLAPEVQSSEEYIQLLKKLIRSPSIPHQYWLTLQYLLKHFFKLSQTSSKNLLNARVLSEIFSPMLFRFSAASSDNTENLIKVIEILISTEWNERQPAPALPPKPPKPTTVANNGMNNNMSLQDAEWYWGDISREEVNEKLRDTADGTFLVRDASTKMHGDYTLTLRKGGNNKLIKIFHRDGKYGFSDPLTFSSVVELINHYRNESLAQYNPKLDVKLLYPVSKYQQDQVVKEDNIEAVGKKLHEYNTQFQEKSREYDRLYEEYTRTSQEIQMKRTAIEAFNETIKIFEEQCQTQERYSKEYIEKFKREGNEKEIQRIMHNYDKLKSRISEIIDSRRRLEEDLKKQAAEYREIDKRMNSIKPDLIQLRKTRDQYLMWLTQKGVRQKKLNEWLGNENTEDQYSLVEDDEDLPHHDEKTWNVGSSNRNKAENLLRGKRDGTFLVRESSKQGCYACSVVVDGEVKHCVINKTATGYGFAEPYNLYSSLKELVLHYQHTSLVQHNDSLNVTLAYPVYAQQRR
Sequence of PI3Kγ (p110γ) Recombinant Human Protein (P48736 whole entry): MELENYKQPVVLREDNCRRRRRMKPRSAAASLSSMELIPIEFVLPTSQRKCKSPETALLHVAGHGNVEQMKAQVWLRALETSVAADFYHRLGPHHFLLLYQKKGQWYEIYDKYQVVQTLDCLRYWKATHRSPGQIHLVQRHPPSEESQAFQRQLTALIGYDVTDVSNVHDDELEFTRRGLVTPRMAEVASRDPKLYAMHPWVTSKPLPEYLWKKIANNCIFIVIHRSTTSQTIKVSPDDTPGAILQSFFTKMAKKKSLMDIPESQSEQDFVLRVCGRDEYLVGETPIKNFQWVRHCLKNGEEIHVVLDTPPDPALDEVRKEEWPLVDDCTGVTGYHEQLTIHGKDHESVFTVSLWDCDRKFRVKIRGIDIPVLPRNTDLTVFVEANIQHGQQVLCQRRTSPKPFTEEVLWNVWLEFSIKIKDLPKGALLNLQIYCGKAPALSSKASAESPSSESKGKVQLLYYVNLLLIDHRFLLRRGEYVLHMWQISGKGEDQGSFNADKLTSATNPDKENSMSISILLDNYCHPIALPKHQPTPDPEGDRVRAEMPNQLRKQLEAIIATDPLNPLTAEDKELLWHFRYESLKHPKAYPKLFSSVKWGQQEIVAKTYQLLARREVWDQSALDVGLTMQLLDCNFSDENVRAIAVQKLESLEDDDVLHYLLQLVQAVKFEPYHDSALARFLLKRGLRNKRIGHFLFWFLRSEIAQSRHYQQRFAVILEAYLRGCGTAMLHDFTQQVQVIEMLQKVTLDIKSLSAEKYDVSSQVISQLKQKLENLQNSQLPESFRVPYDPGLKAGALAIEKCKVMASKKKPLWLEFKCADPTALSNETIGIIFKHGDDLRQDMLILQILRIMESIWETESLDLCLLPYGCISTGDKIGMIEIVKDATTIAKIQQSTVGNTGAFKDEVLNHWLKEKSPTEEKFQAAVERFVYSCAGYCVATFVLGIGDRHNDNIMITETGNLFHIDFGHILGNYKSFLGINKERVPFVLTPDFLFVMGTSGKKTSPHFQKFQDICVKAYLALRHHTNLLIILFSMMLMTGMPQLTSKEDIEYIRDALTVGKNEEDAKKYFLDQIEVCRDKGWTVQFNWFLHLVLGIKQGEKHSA

SMILES | IC50 [1] [nM] | IC50 [2] [nM] | IC50 ([3]; Homo sapiens) [nM] | IC50 [3] [nM]
Cc1ccc(S(=O)(=O)N[C@H]2C[C@@H](CO)C2)cc1-c1cnc2c(N)ncnn12 [Example 61, 3-(4-Aminoimidazo[2,1-f][1,2,4]triazin-7-yl)-N-[cis-3-(hydroxymethyl)cyclobutyl]-4-methylbenzenesulfonamide] | 500 to 2000 | < 100 | 500 to 1000 | 
Cc1ccc(S(=O)(=O)N[C@H]2CC[C@H](CO)OC2)cc1-c1cnc2c(N)ncnn12 [Example 62, 3-(4-Aminoimidazo[2,1-f][1,2,4]triazin-7-yl)-N-[(3S,6R)-6-(hydroxymethyl)tetrahydro-2H-pyran-3-yl]-4-methylbenzenesulfonamide] | 100 to 500 | < 100 | 100 to 500 | 
Cc1ccc(S(=O)(=O)N[C@H]2CC[C@@H](O)CC2)cc1-c1cnc2c(N)ncnn12 [Example 63, 3-(4-Aminoimidazo[2,1-f][1,2,4]triazin-7-yl)-N-(cis-4-hydroxycyclohexyl)-4-methylbenzenesulfonamide] | 100 to 500 | < 100 | 100 to 500 | 
Cc1ccc(S(=O)(=O)NC2CC2)cc1-c1cnc2c(N)ncnn12 [Example 64, 3-(4-Aminoimidazo[2,1-f][1,2,4]triazin-7-yl)-N-cyclopropyl-4-methylbenzenesulfonamide] | > 2000 | < 100 | > 1000 | 
Cc1ccc(S(=O)(=O)NCCCO)cc1-c1cnc2c(N)ncnn12 [Example 65, 3-(4-Aminoimidazo[2,1-f][1,2,4]triazin-7-yl)-N-(3-hydroxypropyl)-4-methylbenzenesulfonamide] | > 2000 | < 100 | > 1000 | 
Cc1ccc(S(=O)(=O)NC2CCOCC2)cc1-c1cnc2c(N)ncnn12 [Example 68, 3-(4-Aminoimidazo[2,1-f][1,2,4]triazin-7-yl)-4-methyl-N-(tetrahydro-2H-pyrazn-4-yl)benzenesulfonamide] | 500 to 2000 | < 100 |  | 500 to 1000
Cc1ccc(S(=O)(=O)N(C)[C@H]2CC[C@H](O)CC2)cc1-c1cnc2c(N)ncnn12 [Example 69, 3-(4-Aminoimidazo[2,1-f][1,2,4]triazin-7-yl)-N-(trans-4-hydroxycyclohexyl)-N,4-dimethylbenzenesulfonamide] | 500 to 2000 | < 100 | 100 to 500 | 
CO[C@H]1CC[C@H](NS(=O)(=O)c2ccc(C)c(-c3cnc4c(N)ncnn34)c2)CC1 [Example 70, 3-(4-Aminoimidazo[2,1-f][1,2,4]triazin-7-yl)-N-(trans-4-methoxycyclohexyl)-4-methylbenzenesulfonamide] | 500 to 2000 | < 100 | > 1000 | 
Cc1ccc(S(=O)(=O)N[C@H]2C[C@H](O)C2)cc1-c1cnc2c(N)ncnn12 [Example 71, 3-(4-Aminoimidazo[2,1-f][1,2,4]triazin-7-yl)-N-(trans-3-hydroxycyclobutyl)-4-methylbenzenesulfonamide] | > 2000 | < 100 | 100 to 500 | 
Cc1ccc(S(=O)(=O)N[C@H]2CC[C@H](NC(=O)OC(C)(C)C)CC2)cc1-c1cnc2c(N)ncnn12 [Example 72, tert-Butyl [trans-4-({[3-(4-aminoimidazo[2,1-f][1,2,4]triazin-7-yl)-4-methylphenyl]sulfonyl}amino)cyclohexyl]carbamate] | > 2000 | < 100 | > 1000 | 
Cc1ccc(S(=O)(=O)N[C@H]2CC[C@H](N)CC2)cc1-c1cnc2c(N)ncnn12 [Example 73, bis-hydrochloride] | 500 to 2000 | < 100 | > 1000 | 
CC(=O)N[C@H]1CC[C@H](NS(=O)(=O)c2ccc(C)c(-c3cnc4c(N)ncnn34)c2)CC1 [Example 74, N-[trans-4-({[3-(4-Aminoimidazo[2,1-f][1,2,4]triazin-7-yl)-4-methylphenyl]sulfonyl}amino)cyclohexyl]acetamide] | 500 to 2000 | < 100 | > 1000 | 
Cc1cc(-c2cn3c(-c4cc(S(=O)(=O)N[C@H]5CC[C@H](O)CC5)ccc4C)cnc3c(N)n2)on1 [Example 75, 3-[8-Amino-6-(3-methylisoxazol-5-yl)imidazo[1,2-a]pyrazin-3-yl]-N-(trans-4-hydroxycyclohexyl)-4-methylbenzenesulfonamide] | < 100 | < 100 | 100 to 500 | 
Cc1ccc(S(=O)(=O)N[C@H]2CC[C@H](O)CC2)cc1-c1cnc2c(N)nc(-c3cnn(CC(F)(F)F)c3)cn12 [Example 76, 3-{8-amino-6-[1-(2,2,2-trifluoroethyl)-1H-pyrazol-4-yl]imidazo[1,2-a]pyrazin-3-yl}-N-(trans-4-hydroxycyclohexyl)-4-methylbenzenesulfonamide] | 100 to 500 | < 100 | 100 to 500 | 

Continued, values first:

IC50 [1] [nM] | IC50 [2] [nM] | IC50 ([3]; Homo sapiens) [nM] | IC50 [3] [nM] | SMILES
100 to 500 | < 100 | 100 to 500 |  | Cc1ccc(S(=O)(=O)N[C@H]2CC[C@H](O)CC2)cc1-c1cnc2c(N)nc(-c3c(C)noc3C)cn12 [Example 77, 3-[8-amino-6-(3,5-dimethylisoxazol-4-yl)imidazo[1,2-a]pyrazin-3-yl]-N-(trans-4-hydroxycyclohexyl)-4-methylbenzenesulfonamide]
100 to 500 | < 100 | 500 to 1000 |  | Cc1ccc(S(=O)(=O)N[C@H]2CC[C@H](O)CC2)cc1-c1cnc2c(N)nc(-c3cnn(C(C)(C)C#N)c3)cn12 [Example 78, 3-{8-amino-6-[1-(1-cyano-1-methylethyl)-1H-pyrazol-4-yl]imidazo[1,2-a]pyrazin-3-yl}-N-(trans-4-hydroxycyclohexyl)-4-methylbenzenesulfonamide]
< 100 | < 100 | 100 to 500 |  | Cc1ccc(S(=O)(=O)N[C@H]2CC[C@H](O)CC2)cc1-c1cnc2c(N)nc(-c3ccc(C(=O)N(C)C)cc3F)cn12 [Example 79, 4-[8-Amino-3-(5-{[(trans-4-hydroxycyclohexyl)amino]sulfonyl}-2-methylphenyl)imidazo[1,2-a]pyrazin-6-yl]-3-fluoro-N,N-dimethylbenzamide trifluoroacetate]
100 to 500 | < 100 | 100 to 500 |  | Cc1ccc(S(=O)(=O)N[C@H]2CC[C@H](O)CC2)cc1-c1cnc2c(N)nc(-c3cc(C(F)(F)F)nn3C)cn12 [Example 80, 3-{8-Amino-6-[1-methyl-3-(trifluoromethyl)-1H-pyrazol-5-yl]imidazo[1,2-a]pyrazin-3-yl}-N-(trans-4-hydroxycyclohexyl)-4-methylbenzenesulfonamide]
< 100 | < 100 | < 100 |  | Cc1ccc(S(=O)(=O)N[C@H]2CC[C@H](O)CC2)cc1-c1cnc2c(N)nc(-c3ccncc3F)cn12 [Example 81, 3-[8-Amino-6-(3-fluoropyridin-4-yl)imidazo[1,2-a]pyrazin-3-yl]-N-(trans-4-hydroxycyclohexyl)-4-methylbenzenesulfonamide]
< 100 | < 100 | < 100 |  | Cc1ccc(S(=O)(=O)N[C@H]2CC[C@H](O)CC2)cc1-c1cnc2c(N)nc(-c3ccc(C(C)O)cc3F)cn12 (stereo partly drawn) [Example 82, 3-(8-Amino-6-(2-fluoro-4-(1-hydroxyethyl)phenyl)imidazo[1,2-a]pyrazin-3-yl)-N-(trans-4-hydroxycyclohexyl)-4-methylbenzenesulfonamide]
< 100 | 100 to 500 | > 1000 |  | COc1cc(C)c(-c2cnc3c(N)nccn23)cc1S(=O)(=O)N[C@H]1CC[C@H](O)CC1 [Example 83, 5-(8-aminoimidazo[1,2-a]pyrazin-3-yl)-N-(trans-4-hydroxycyclohexyl)-2-methoxy-4-methylbenzenesulfonamide]
500 to 2000 | < 100 |  | > 1000 | Cc1ccc(S(=O)(=O)NC2CCC(F)(F)CC2)cc1-c1cnc2c(N)nccn12 [Example 84, 3-(8-amionimidazo[1,2-a]pyrazin-3-yl)-N-(4,4-difluorocyclohexyl)-4-methylbenzenesulfonamide]
500 to 2000 | < 100 |  | 100 to 500 | Cc1ccc(S(=O)(=O)NC2CCC(C)(O)CC2)cc1-c1cnc2c(N)nccn12 (stereo not drawn) [Example 85, 3-(8-aminoimidazo[1,2-a]pyrazin-3-yl)-N-(trans-4-hydroxy-4-methylcyclohexyl)-4-methylbenzenesulfonamide]
500 to 2000 | < 100 |  | > 1000 | Cc1ccc(S(=O)(=O)NCC2CCN(C(=O)C3CC3)CC2)cc1-c1cnc2c(N)nccn12 [Example 86, 3-(8-aminoimidazo[1,2-a]pyrazin-3-yl)-N-((1-(cyclopropanecarbonyl)piperidin-4-yl)methyl)-4-methylbenzenesulfonamide]
100 to 500 | < 100 |  | 100 to 500 | Cc1ccc(S(=O)(=O)N[C@H]2C[C@](C)(C#N)C2)cc1-c1cnc2c(N)ncnn12 [Example 87, 3-(4-Aminoimidazo[1,2-f][1,2,4]triazin-7-yl)-N-((1r,3r)-3-cyano-3-methylcyclobutyl)-4-methylbenzenesulfonamide trifluoroacetate salt]
